In patent US20260008760A1, “DIPEPTIDYL PEPTIDASE 1 INHIBITORS AND USES THEREOF” (Insmed Incorporated, priority 2024, published 2026):

Columns and labels:
human DPP1 enzyme = human DPP1 enzyme (Homo sapiens, UniProt P53634); experiment: Human DPP1 Enzyme Single-Point Percent Inhibition Testing (HL-60 lysate); format: biochemical; parameters: A crude lysate of HL-60 cells (ATCC; Manassas, VA) was used as a source of human DPP1 enzyme; host or cells: HL-60 cells (crude lysate); details: final compound concentration of 10 nM, 400 μM H-Gly-Arg-AMC, n = 1
Sequence of human DPP1 enzyme (P53634 25-463): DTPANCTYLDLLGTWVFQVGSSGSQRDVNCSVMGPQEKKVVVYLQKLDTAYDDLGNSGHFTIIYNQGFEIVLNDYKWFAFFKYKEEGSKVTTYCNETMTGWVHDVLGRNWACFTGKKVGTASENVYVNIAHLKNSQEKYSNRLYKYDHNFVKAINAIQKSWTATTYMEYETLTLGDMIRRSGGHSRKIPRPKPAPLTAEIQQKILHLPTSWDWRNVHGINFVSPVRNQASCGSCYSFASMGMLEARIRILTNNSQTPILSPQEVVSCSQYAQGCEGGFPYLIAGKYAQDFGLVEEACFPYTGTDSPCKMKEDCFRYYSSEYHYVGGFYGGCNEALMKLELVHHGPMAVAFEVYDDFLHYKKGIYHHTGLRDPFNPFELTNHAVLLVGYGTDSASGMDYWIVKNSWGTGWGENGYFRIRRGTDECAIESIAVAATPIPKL
Description: Example 98. Human DPP1 Enzyme Single-Point Percent Inhibition Testing
A crude lysate of HL-60 cells (ATCC; Manassas, VA) was used as a source of human DPP1 enzyme in the assay. Lysate was prepared in 1% Triton X-100 in PBS at a concentration of 20,000 live cells per μL of lysis buffer and was centrifuged at 16,000 rcf for 10 minutes at 4° C., after which supernatant was collected and flash-frozen in liquid nitrogen. Test articles were applied to human DPP1 enzyme in Assay Buffer (25 mM MES pH 6.0, 50 mM NaCl, 5 mM DTT) in a total reaction volume of 125 μL. 25 μL of compound diluted to 50 nM in Assay Buffer plus 5% DMSO was first added to 50 μL of HL-60 lysate diluted to contain a DPP1 enzyme concentration of roughly 1 ng/μL and allowed to pre-incubate for 10 minutes at 37° C. after which 50 μL of 1000 μM H-Gly-Arg-AMC substrate (Bachem; St. Torrance, CA) was added, giving final compound concentration of 10 nM, a final substrate concentration of 400 μM and a final DMSO concentration of 1%. Substrate cleavage was measured for 90 minutes at 37° C., with fluorescence at Excitation/Emission 350/450 nm measured every 5 minutes. DPP1 concentration was interpolated based on its activity relative to a standard curve of activated human recombinant DPP1 enzyme. Percent inhibition at 10 nM was calculated for each test article based on remaining DPP1 activity compared to enzyme activity in wells that received only vehicle control.

DPP1 in HL-60 cells = DPP1 in HL-60 cells (Homo sapiens, UniProt P53634); experiment: DPP1 Cell Single-Point Percent Inhibition Testing; format: cell-based; parameters: host or cells: HL-60 cells; details: final compound concentration 5 nM, n = 1
Sequence of DPP1 in HL-60 cells (P53634 25-463): as above
Description: Example 100. DPP1 Cell Single-Point Percent Inhibition Testing
HL-60 cells (ATCC; Manassas, VA) were maintained in RPMI-1640 supplemented with 20% heat-inactivated FBS and 1× Antibiotic Antimycotic (Cytiva; Marlborough, MA). Media was changed every three to four days and cells were not allowed to exceed 1×10^6 cells per mL. Prior to assay, cells were collected by centrifugation at 500 rcf for 3 minutes, resuspended in RPMI (with no additional supplements) and counted. Cells were diluted in RPMI to a concentration of 5×10^5 live cells per mL and transferred to black 96-well plates for assay, 60 μL per well. Test articles were diluted to 25 nM in RPMI plus 0.5% DMSO, and 20 μL was added to each assay well. Compound was allowed to pre-incubate with cells with gentle shaking at 100 rpm for 60 minutes at 37° C. in a cell culture incubator maintained at 5% CO2, after which 20 μL of 500 μM H-Gly-Phe-AFC cell-permeable substrate (MP Biomedicals; Solon, OH) in RPMI was added to each well, giving final compound concentration of 5 nM, a final substrate concentration of 100 μM and a final DMSO concentration of 0.1%. Plates were returned to the incubator with shaking at 100 rpm for 30 minutes, after which fluorescence was measured at Excitation/Emission 400/505 nm. Percent Inhibition was calculated from RFU values by first subtracting background values (wells in which RPMI was substituted for cells) from each well, and then subtracting background-subtracted RFU derived from wells that received a final concentration of 10 μM brensocatib. This value represents the non-specific substrate cleavage from the HL-60 cells, and the remaining RFU should theoretically be solely the contribution of DPP1 enzyme activity. The final percent inhibition value was calculated for each test article based on remaining RFU compared to RFU from wells that received only vehicle control.

SMILES	inhibition at 0.01 µM (human DPP1 enzyme) [%]	inhibition at 0.005 µM (DPP1 in HL-60 cells) [%]
C[C@@H]1NC[C@@H](C(=O)N[C@H](C#N)Cc2ccc(-c3cnc4c(n3)CCCC4)cc2)OC[C@@H]1O [Compound A108]	≤ 40	≤ 76.5
N#C[C@H](Cc1ccc(-c2ccc3c(n2)CCCN3)cc1)NC(=O)[C@@H]1CNCCCCO1 [Compound A111]	≤ 40	≤ 76.5
N#C[C@H](Cc1ccc(-c2cnc3c(n2)CCCC3)cc1)NC(=O)[C@@H]1CNCCCCO1 [Compound A114]	≤ 40	≤ 76.5
N#C[C@H](Cc1ccc(-c2cnc3c(n2)CCCC3)cc1F)NC(=O)[C@@H]1CNCCCCO1 [Compound A115]	≤ 40	≤ 76.5
Cc1cn2cc(-c3ccc(C[C@@H](C#N)NC(=O)[C@@H]4CNCCCO4)cc3)cc2c(C)n1 [Compound A116]	≤ 40	≤ 76.5
N#C[C@H](Cc1ccc(-c2ccc3c(n2)CCCN3)cc1)NC(=O)[C@@H]1CNCCCO1 [Compound A117]	≤ 40	≤ 76.5
Cc1cn2cc(-c3ccc(C[C@@H](C#N)NC(=O)[C@@H]4CNCCCO4)c(F)c3)cc2c(C)n1 [Compound A118]	≤ 40	≤ 76.5
N#C[C@H](Cc1ccc(-c2ccc3c(n2)CCCN3)cc1F)NC(=O)[C@@H]1CNCCCO1 [Compound A119]	≤ 40	≤ 76.5
N#C[C@H](Cc1ccc(-c2cnc3c(n2)CCCC3)cc1F)NC(=O)[C@@H]1CNCCCO1 [Compound A120]	≤ 40	≤ 76.5
CO[C@@H]1CCNC[C@@H](C(=O)N[C@H](C#N)Cc2ccc(-c3cc4c(C)ncc(C)n4c3)cc2)OC1 [Compound A122]	≥ 66.7	76.5 to 93.9
CO[C@@H]1CCNC[C@@H](C(=O)N[C@H](C#N)Cc2ccc(-c3cc4c(C)nc(C)c(C)n4c3)cc2)OC1 [Compound A123]	≥ 66.7	≥ 93.9
COC1CNC[C@@H](C(=O)N[C@H](C#N)Cc2ccc(-c3cc4c(C)ncc(C)n4c3)cc2)OC1 (stereo partly shown) [Compound A125]	≥ 66.7	≥ 93.9
COC1CNC[C@@H](C(=O)N[C@H](C#N)Cc2ccc(-c3cc4c(C)nc(C)c(C)n4c3)cc2)OC1 (stereo partly shown) [Compound A126]	≥ 66.7	≥ 93.9
CO[C@H]1CCO[C@H](C(=O)N[C@H](C#N)Cc2ccc(-c3cc4c(C)ncc(C)n4c3)cc2)CNC1 [Compound A128]	40 to 66.7	76.5 to 93.9
CO[C@H]1CCO[C@H](C(=O)N[C@H](C#N)Cc2ccc(-c3cc4c(C)nc(C)c(C)n4c3)cc2)CNC1 [Compound A129]	40 to 66.7	76.5 to 93.9
Cc1ncc(C)n2cc(-c3ccc(C[C@@H](C#N)NC(=O)[C@@H]4CN[C@@H](C)[C@H](O)CO4)cc3)cc12 [Compound A131]	≥ 66.7	≤ 76.5
Cc1nc(C)c2cc(-c3ccc(C[C@@H](C#N)NC(=O)[C@@H]4CN[C@@H](C)[C@H](O)CO4)cc3)cn2c1C [Compound A132]	≥ 66.7	76.5 to 93.9
Cc1ncc(C)n2cc(-c3ccc(C[C@@H](C#N)NC(=O)[C@@H]4CN[C@@H](C)[C@@H](O)CO4)cc3)cc12 [Compound A134]	40 to 66.7	≤ 76.5

SMILES	inhibition at 0.01 µM (human DPP1 enzyme) [%]	inhibition at 0.005 µM (DPP1 in HL-60 cells) [%]
Cc1nc(C)c2cc(-c3ccc(C[C@@H](C#N)NC(=O)[C@@H]4CN[C@@H](C)[C@@H](O)CO4)cc3)cn2c1C [Compound A135]	≤ 40	≤ 76.5
Cc1ncc(C)n2cc(-c3ccc(C[C@@H](C#N)NC(=O)[C@@H]4CNCCCO4)cc3)cc12 [Compound A140]	≤ 40	76.5 to 93.9
Cc1nc(C)c2cc(-c3ccc(C[C@@H](C#N)NC(=O)[C@@H]4CNCCCO4)cc3)cn2c1C [Compound A141]	≤ 40	76.5 to 93.9
CN1CCC(n2ncc3ccc(-c4ccc(C[C@@H](C#N)NC(=O)[C@@H]5CNCCCO5)c(F)c4)cc32)CC1 [Compound A144]	40 to 66.7	≤ 76.5
CO[C@@H]1CCNC[C@@H](C(=O)N[C@H](C#N)Cc2cc3c(cc2F)-c2ccc(C#N)cc2CO3)OC1 [Compound B20]	≥ 66.7	≥ 93.9
CO[C@@H]1CCNC[C@@H](C(=O)NC(C#N)Cc2cc3c(cc2F)-c2cc(C#N)ccc2CO3)OC1 (stereo partly shown) [Compound B21]	≥ 66.7	76.5 to 93.9
CO[C@H]1CCO[C@H](C(=O)N[C@H](C#N)Cc2cc3c(cc2F)-c2ccc(C#N)cc2CO3)CNC1 [Compound B24]	40 to 66.7	≤ 76.5
CO[C@H]1CCO[C@H](C(=O)NC(C#N)Cc2cc3c(cc2F)-c2cc(C#N)ccc2CO3)CNC1 (stereo partly shown) [Compound B25]	40 to 66.7	≤ 76.5
CO[C@H]1CCO[C@H](C(=O)NC(C#N)Cc2cc3c(cc2F)-c2ccc(F)cc2CO3)CNC1 (stereo partly shown) [Compound B26]	40 to 66.7	≤ 76.5
N#Cc1ccc2c(c1)COc1cc(C[C@@H](C#N)NC(=O)[C@@H]3CNCCCCO3)c(F)cc1-2 [Compound B28]	40 to 66.7	≤ 76.5
N#Cc1ccc2c(c1)-c1cc(F)c(CC(C#N)NC(=O)[C@@H]3CNCCCCO3)cc1OC2 (stereo partly shown) [Compound B29]	≤ 40	≤ 76.5
N#C[C@H](Cc1cc2c(cc1F)-c1ccc(F)cc1CO2)NC(=O)[C@@H]1CNCCCCO1 [Compound B30]	≤ 40	≤ 76.5
N#CC(Cc1cc2c(cc1F)-c1cc(C3COC3)c(F)cc1CO2)NC(=O)[C@@H]1CNCCCO1 (stereo partly shown) [Compound B31]	40 to 66.7	76.5 to 93.9
N#C[C@H](Cc1cc2c(cc1F)-c1ccc(F)cc1CO2)NC(=O)[C@@H]1CNCCCO1 [Compound B34]	40 to 66.7	≤ 76.5
CO[C@@H]1CCNC[C@@H](C(=O)NC(C#N)Cc2cc3c(cc2F)-c2cc4c(cc2CO3)oc(=O)n4C)OC1 (stereo partly shown) [Compound C11]	≥ 66.7	76.5 to 93.9
COC1CNC[C@@H](C(=O)NC(C#N)Cc2cc3c(cc2F)-c2cc4c(cc2CO3)oc(=O)n4C)OC1 (stereo partly shown) [Compound C14]	≥ 66.7	≤ 76.5
CO[C@H]1CCO[C@H](C(=O)NC(C#N)Cc2cc3c(cc2F)-c2cc4c(cc2CO3)oc(=O)n4C)CNC1 (stereo partly shown) [Compound C16]	≥ 66.7	≤ 76.5
